Measured values as given in paper PMC2919500 (Biochemistry, 2008).
Where two headings read alike, the source gives them in different places. Blank lines part the entries; values can stand above or below the molecule they belong to.

What was measured:
AKT1 E17K PH domain [1] = target: T1, AKT1 E17K PH domain (Homo sapiens, UniProt P31749, E17K); test: IP6 competitive displacement assay; conditions: for Ki: read-out: KI(IP6)
AKT1 PH domain [2] = target: T2, AKT1 PH domain (Homo sapiens, UniProt P31749); test: IP6 competitive displacement assay
PLCδ1 PH domain [3] = target: T3, PLCδ1 PH domain (Mus musculus, UniProt Q8R3B1); test: IP6 competitive displacement assay
T3 sequence (Q8R3B1 12-142): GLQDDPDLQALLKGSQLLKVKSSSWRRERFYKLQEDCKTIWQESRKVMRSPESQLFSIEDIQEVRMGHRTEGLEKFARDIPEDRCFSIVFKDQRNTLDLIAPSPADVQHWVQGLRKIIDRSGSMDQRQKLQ

AKT1 E17K PH domain [4] = target: T1, AKT1 E17K PH domain; test: Stopped-flow association and dissociation kinetics
AKT1 PH domain [5] = target: T2, AKT1 PH domain; test: Direct IP6 titration of the free PH domain; conditions: read-out: KD(IP6); free WT AKT1 PH domain, 25 °C, binding buffer pH 7.4
PLCδ1 PH domain [6] = target: T3, PLCδ1 PH domain; test: Direct IP6 titration of the free PH domain; conditions: read-out: KD(IP6), 25 °C, binding buffer pH 7.4
AKT1 E17K PH domain [7] = target: T1, AKT1 E17K PH domain; test: Direct IP6 titration of the free PH domain; format: binding
RFP-AKT1 E17K PH = RFP-AKT1 E17K PH (Homo sapiens, UniProt P31749, E17K); test: Plasma membrane targeting in live NIH 3T3 cells; format: cell-based; conditions: serum starvation with inhibitor prior to imaging, data not shown
Citrine-AKT1 PH = Citrine-AKT1 PH (Homo sapiens, UniProt P31749); test: Plasma membrane targeting in live NIH 3T3 cells; format: cell-based; conditions: serum-starved NIH 3T3 cells, 10 nM PDGF 5 min, then 800 nM wortmannin 15 min
CFP-PLCδ1 PH = target: T4, CFP-PLCδ1 PH (Homo sapiens, UniProt P51178); test: Plasma membrane targeting in live NIH 3T3 cells; format: cell-based; conditions: serum starvation with inhibitor prior to imaging, data not shown
T4 sequence (P51178 21-130 limits assumed): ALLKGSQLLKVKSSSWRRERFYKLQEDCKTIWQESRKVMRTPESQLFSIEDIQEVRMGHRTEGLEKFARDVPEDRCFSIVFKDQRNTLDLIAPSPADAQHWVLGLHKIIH

T2 sequence (P31749 1-120): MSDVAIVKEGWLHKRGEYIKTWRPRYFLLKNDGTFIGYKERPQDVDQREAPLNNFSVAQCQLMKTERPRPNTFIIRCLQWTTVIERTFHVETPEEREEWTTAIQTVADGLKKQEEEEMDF
T1 sequence (P31749 1-120 E17K): as the sequence (P31749 1-120) above, with E17K counted along it
Chain of RFP-AKT1 E17K PH (P31749 5-108 E17K limits assumed): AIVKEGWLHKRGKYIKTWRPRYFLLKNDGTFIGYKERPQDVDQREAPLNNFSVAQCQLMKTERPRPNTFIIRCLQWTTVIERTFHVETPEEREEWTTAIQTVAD
Chain of Citrine-AKT1 PH (P31749 5-108 limits assumed): as the sequence (P31749 5-108 E17K limits assumed) above, with K13E counted along it

affinity enhancement by E17K larger than for the other two ligands (AKT1 E17K PH domain [1]; PI(4,5)P2 versus IP6 and PI(3,4,5)P3): at least 10 fold
Kd (AKT1 E17K PH domain [1]; read-out: KD(PIPn), AKT1 E17K PH, PIP lipid embedded in synthetic plasma membrane, from KD(IP6) and KI(IP6)): 0.13 ± 0.03 µM
Kd (AKT1 PH domain [2]; read-out: KD(PIPn), WT AKT1 PH, PIP lipid embedded in synthetic plasma membrane, from KD(IP6) and KI(IP6)): > 10 µM
Kd (PLCδ1 PH domain [3]; read-out: KD(PIPn), PLCδ1 PH, PIP lipid embedded in synthetic plasma membrane, from KD(IP6) and KI(IP6)): 0.19 ± 0.07 µM
kon (AKT1 E17K PH domain [4]; 0.5 µM protein, 200 µM total lipid, 25 °C): 1.3 ± 0.1 ×10^7 M^−1 s^−1
koff (AKT1 E17K PH domain [4]; dissociation with excess IP6 (40 mM), 25 °C): 1.5 ± 0.1 s⁻¹
Kd (AKT1 E17K PH domain [4]; read-out: KD (koff/kon), calculated from the rate constants): 0.12 ± 0.01 µM
Molecule: L-α-phosphatidylinositol 4,5-bisphosphate [PI(4,5)P2]

Ki (AKT1 E17K PH domain [1]; displacement of AKT1 E17K PH from PM(+)PI(3,4,5)P3): 8000 ± 2000 µM
Ki (AKT1 E17K PH domain [1]; displacement of AKT1 E17K PH from PM(+)PI(4,5)P2): 210 ± 10 µM
Kd (AKT1 PH domain [5]): 260 ± 50 µM
Kd (PLCδ1 PH domain [6]): 3 ± 0.2 µM
Ki (AKT1 PH domain [2]; read-out: KI(IP6), displacement of AKT1 PH from PM(+)PI(3,4,5)P3): 28000 ± 1000 µM
Kd (AKT1 E17K PH domain [7]; read-out: KD(IP6), free AKT1 E17K PH domain, 25 °C, binding buffer pH 7.4): 11 ± 1 µM
additional IP6 binding free energy from the E17K mutation (AKT1 E17K PH domain [7]; ΔΔG, E17K versus WT AKT1 PH): 3.0 RT
Ki (PLCδ1 PH domain [3]; read-out: KI(IP6), displacement of PLCδ1 PH from PM(+)PI(4,5)P2): 47 ± 4 µM
Molecule: O=P(O)(O)OC1C(OP(=O)(O)O)C(OP(=O)(O)O)C(OP(=O)(O)O)C(OP(=O)(O)O)C1OP(=O)(O)O (stereo not drawn) [IP6, inositol 1,2,3,4,5,6-hexakisphosphate]

Molecule: COC[C@H]1OC(=O)c2coc3c2[C@@]1(C)C1=C(C3=O)[C@@H]2CCC(=O)[C@@]2(C)C[C@H]1OC(C)=O [wortmannin]
constitutive plasma membrane targeting in the presence of a PI3K inhibitor (RFP-AKT1 E17K PH): not disrupted
localization of the WT AKT1 PH domain after PI3K inhibition (Citrine-AKT1 PH): returns to the cytoplasm
constitutive plasma membrane targeting in the presence of a PI3K inhibitor (CFP-PLCδ1 PH): not disrupted
